Experimental data taken from PubChem BioAssay (NCI).
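Values below derive from 48-hour exposures of cells grown in 96-well plates, with endpoints linearly interpolated between the two concentrations bracketing the appropriate inhibition level. The concentration for full growth arrest is given as TGI.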

How the values were obtained:
Experiment in all cases: NCI-60 cell line screen, 48 h
DLD-1 colon = system: DLD-1 colon
HOP-18 NSCLC = system: HOP-18 NSCLC
KM20L2 colon = system: KM20L2 colon
LXFL 529 NSCLC = system: LXFL 529 NSCLC
M19-MEL melanoma = system: M19-MEL melanoma
XF 498 CNS = system: XF 498 CNS
DU-145 prostate = system: DU-145 prostate
T-47D breast = system: T-47D breast
MDA-MB-435 = system: MDA-MB-435
NCI/ADR-RES ovarian = system: NCI/ADR-RES ovarian

Structure (SMILES)	TGI (DLD-1 colon) [µM]	TGI (HOP-18 NSCLC) [µM]	TGI (KM20L2 colon) [µM]	TGI (LXFL 529 NSCLC) [µM]	TGI (M19-MEL melanoma) [µM]	TGI (XF 498 CNS) [µM]	TGI (DU-145 prostate) [µM]	TGI (T-47D breast) [µM]	TGI (MDA-MB-435) [µM]	TGI (NCI/ADR-RES ovarian) [µM]
NC(N)=NS(=O)(=O)c1ccc(NC(=O)c2cccc3c(Nc4ccc(S(N)(=O)=O)cc4)c4ccccc4nc23)cc1	> 100	> 100	> 100	> 100	> 100	> 100				
N=S(c1ccccc1)c1ccccc1[N+](=O)[O-] (stereo not given)	46	> 100	41.5	30.9	29.7	19.6				
CCOC(=O)/C(=C/c1cccc(OC)c1)N(CC)CC			> 100	> 100	> 100	> 100				
Cc1ccc(S(=O)(=O)N/N=C(\c2nc3ccc([N+](=O)[O-])cc3[nH]c2=O)C(O)c2ccccc2Cl)cc1 (stereo not given)	> 100	> 100	> 100	> 100	> 100					
CCOC(=O)c1ccc(N[C@@H]2c3cc4c(cc3C(C3=CC(=O)C(=O)C(OC)=C3)[C@H]3C(=O)OCC32)OCO4)cc1 (stereo not given in full)	> 39.8		32.1	29.4	36.4	9.38				
COC1OC(C)C(OCc2ccccc2)C(OS(=O)(=O)c2ccc(C)cc2)C1OS(=O)(=O)c1ccc(C)cc1 (stereo not given)	> 100	> 100	> 100	> 100	> 100					
COc1cccc(/C=C2\CCC(C)(CN(C)C)C2=O)c1 (stereo not given)	> 100	> 100	> 100		> 100	> 100				
Cc1nnc(N/N=C(/C(=O)C(C#N)c2ccccc2)C(C#N)c2ccccc2)n1N (stereo not given)	59.9	28.6	> 100	10.6	25.2					
CC1=C(C(=O)Nc2ccccc2C)C(/C=C/c2ccccc2)C(C(=O)Nc2ccccc2C)=C(C)N1	> 100	> 100	> 100	> 100	> 100	> 100				
Cc1ccccc1Nc1nc2c(s1)C(=O)c1ccccc1C2=O	13.6	24.9	> 65.4	14.8	3.79	29.3	20	27.5		
CC(CC(=O)Nc1ccc(NC(=O)CC(C)N=NC(N)=S)cc1)N=NC(N)=S (stereo not given)	> 100	> 100	> 100	> 100	> 100	> 100				
CC1(Cc2ccccc2)NC(=S)NC1=O (stereo not given)	> 100	8.35	> 100	> 100	> 100					
CC(=O)OC1COC(n2c(=S)n(-c3ccccc3)c(=O)c3cc(Br)ccc32)C(OC(C)=O)C1OC(C)=O (stereo not given)		> 100	> 100	> 100	> 100	45.2				
COc1c(Br)cc(Br)c(OC)c1-c1[nH]c(Br)c(Br)c1Br	18.4	9.05	22.4		23	14.3				
Cc1cc2c(Br)cc(Br)c(O)c2nc1C(=O)c1ccccc1	> 100	70.4	82.5	80.6	32.2		> 100	74.6	> 100	> 100
O=c1ncccn1C1C=C(CO)C(O)C1O (stereo not given)	> 50	> 50	> 50	> 50		> 50				
